Data on ten compounds can be found in patent US20170022171A1, “2,5-DISUBSTITUTED CYCLOPENTANECARBOXYLIC ACIDS AND THEIR USE” (Bayer Pharma Aktiengesellschaft, priority 2014, published 2017).

The IC50 is the midpoint of a concentration-inhibition curve. Lower therefore signals inhibition by little substance.

Holding throughout (assay type): biochemical
One assay concerns the target T1, mouse MMP-3 (Mus musculus, UniProt P28862).
T1 construct: purchased R&D Systems 548-MP
Put plainly: In vitro mouse MMP-3 inhibition test. From the text:
(§1) The MMP-mediated amidolytic cleavage of a suitable peptide substrate leads to an increase in fluorescent light here too. The signal intensity of the fluorescent light is directly proportional to the enzyme activity. The active concentration of a test compound at which half the enzyme is inhibited (50% signal intensity of the fluorescent light) is reported as the IC50 value.
(§2) Recombinant mouse MMP-3 (from R&D Systems, 548-MP) is chemically activated in accordance with the manufacturer's instructions using APMA. 1 μl of the test compound to be analysed (as a solution in DMSO, suitable concentrations, for example, 1 nM to 30 μM) is pipetted into 24 μl of activated enzyme (final concentration, for example, 0.5 nM) in reaction buffer (50 mM Tris/HCl pH 7.5, 10 mM CaCl2, 150 mM NaCl, 0.05% Brij®-35) in a white 384-hole microtiter plate (MTP). The enzymatic reaction is started by adding the intramolecularly quenched Mca-Arg-Pro-Lys-Pro-Val-Glu-Nval-Trp-Arg-Lys(Dnp)-NH2 substrate (final concentration, for example, 5 μM; R&D Systems, ES-002), so as to result in a total test volume of 50 μl. The course of the MMP-3 reaction is measured by measuring the fluorescence intensity (excitation 320 nm, emission 410 nm) over a suitable period of time (for example over 120 min at a temperature of 32° C.).

A further assay concerns the target T2, mouse MMP-7 (Mus musculus, UniProt Q10738).
T2 construct: purchased R&D Systems 2967-MP
T2 sequence (Q10738 95-264): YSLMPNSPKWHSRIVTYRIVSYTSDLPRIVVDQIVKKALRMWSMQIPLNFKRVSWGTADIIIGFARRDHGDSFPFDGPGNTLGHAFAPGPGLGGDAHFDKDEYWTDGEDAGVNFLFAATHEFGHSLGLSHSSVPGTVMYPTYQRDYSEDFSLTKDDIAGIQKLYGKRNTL
In words: In vitro mouse MMP-7 inhibition test.
Description: as §1
as §2, with “MMP-7” for “MMP-3”, “2967-MP)” for “548-MP)”, “Mca-Lys-Pro-Leu-Gly-Leu-Dpa(Dnp)-Ala-Arg-NH2” for “Mca-Arg-Pro-Lys-Pro-Val-Glu-Nval-Trp-Arg-Lys(Dnp)-NH2”, “ES-010),” for “ES-002),”

The next assay concerns the target T3, mouse MMP-8 (Mus musculus, UniProt O70138).
T3 construct: purchased R&D Systems 2904-MP
In words: In vitro mouse MMP-8 inhibition test.
Description: as §1
as §2, with “MMP-8” for “MMP-3”, “2904-MP)” for “548-MP)”, “2” for “0.5”, “Mca-Lys-Pro-Leu-Gly-Leu-Dpa(Dnp)-Ala-Arg-NH2” for “Mca-Arg-Pro-Lys-Pro-Val-Glu-Nval-Trp-Arg-Lys(Dnp)-NH2”, “ES-010),” for “ES-002),”

The next assay deals with T4, mouse MMP-9 (Mus musculus, UniProt P41245).
T4 construct: purchased R&D Systems 909-MP
T4 sequence (P41245 108-730): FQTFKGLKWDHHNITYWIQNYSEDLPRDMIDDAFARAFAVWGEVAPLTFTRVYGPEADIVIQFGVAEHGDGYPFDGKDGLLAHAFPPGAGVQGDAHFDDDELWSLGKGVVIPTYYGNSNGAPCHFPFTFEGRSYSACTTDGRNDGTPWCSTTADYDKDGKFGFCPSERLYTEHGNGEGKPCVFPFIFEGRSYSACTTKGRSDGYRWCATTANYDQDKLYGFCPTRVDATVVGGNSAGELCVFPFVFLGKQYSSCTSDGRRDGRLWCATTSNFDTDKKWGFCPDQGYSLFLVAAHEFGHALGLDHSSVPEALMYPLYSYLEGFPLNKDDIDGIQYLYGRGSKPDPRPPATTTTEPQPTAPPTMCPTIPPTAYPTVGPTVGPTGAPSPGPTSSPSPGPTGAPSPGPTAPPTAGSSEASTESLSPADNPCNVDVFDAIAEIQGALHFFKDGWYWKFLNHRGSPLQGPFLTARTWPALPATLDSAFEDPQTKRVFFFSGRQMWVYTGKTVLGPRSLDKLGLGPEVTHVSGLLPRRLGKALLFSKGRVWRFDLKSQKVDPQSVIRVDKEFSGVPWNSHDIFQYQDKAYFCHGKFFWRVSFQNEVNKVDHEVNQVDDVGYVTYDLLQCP
In words: In vitro mouse MMP-9 inhibition test.
Description: as §1
as §2, with “MMP-9” for “MMP-3”, “909-MP)” for “548-MP)”, “0.1” for “0.5”, “Mca-Pro-Leu-Gly-Leu-Dpa(Dnp)-Ala-Arg-NH2” for “Mca-Arg-Pro-Lys-Pro-Val-Glu-Nval-Trp-Arg-Lys(Dnp)-NH2”, “ES-001),” for “ES-002),”, “50” for “50 μl.”

The target of a further assay is T5, mouse MMP-12 (Mus musculus, UniProt P34960).
T5 construct: purchased R&D Systems 3467-MP
T5 sequence (P34960 110-473): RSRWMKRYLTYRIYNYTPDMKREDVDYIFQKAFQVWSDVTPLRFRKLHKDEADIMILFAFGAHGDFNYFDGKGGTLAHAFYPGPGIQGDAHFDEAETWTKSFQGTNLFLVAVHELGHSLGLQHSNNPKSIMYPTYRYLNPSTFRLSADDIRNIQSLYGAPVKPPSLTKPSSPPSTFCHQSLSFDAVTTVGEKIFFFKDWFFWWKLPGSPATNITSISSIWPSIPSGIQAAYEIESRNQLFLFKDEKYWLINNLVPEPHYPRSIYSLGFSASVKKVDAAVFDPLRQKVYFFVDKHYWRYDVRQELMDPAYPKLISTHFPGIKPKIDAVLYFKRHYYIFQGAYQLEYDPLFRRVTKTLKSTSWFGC
In words: In vitro mouse MMP-12 inhibition test (standard or high-sensitivity).
Description: as §1
Recombinant mouse MMP-12 (from R&D Systems, 3467-MP) is autocatalytically activated in accordance with the manufacturer's instructions. 1 μl of the test compound to be analysed (as a solution in DMSO, suitable concentrations, for example, 1 nM to 30 μM) is pipetted into 24 μl of activated enzyme (final concentration, for example, 1 nM) in reaction buffer (50 mM Tris/HCl pH 7.5, 10 mM CaCl2, 150 mM NaCl, 0.05% Brij®-35) in a white 384-hole microtiter plate (MTP). The enzymatic reaction is started by adding the intramolecularly quenched Mca-Lys-Pro-Leu-Gly-Leu-Dpa(Dnp)-Ala-Arg-NH2 substrate (final concentration, for example, 5 μM; R&D Systems, ES-010), so as to result in a total test volume of 50 The course of the MMP-12 reaction is measured by measuring the fluorescence intensity (excitation 320 nm, emission 410 nm) over a suitable period of time (for example over 120 min at a temperature of 32° C.).
In this case, an enzyme concentration ten times lower is used (final concentration, for example, 0.1 nM) in order to achieve an elevated test sensitivity. The incubation period chosen for the test is correspondingly longer (for example 16 hours).

T1 sequence (P28862 100-477): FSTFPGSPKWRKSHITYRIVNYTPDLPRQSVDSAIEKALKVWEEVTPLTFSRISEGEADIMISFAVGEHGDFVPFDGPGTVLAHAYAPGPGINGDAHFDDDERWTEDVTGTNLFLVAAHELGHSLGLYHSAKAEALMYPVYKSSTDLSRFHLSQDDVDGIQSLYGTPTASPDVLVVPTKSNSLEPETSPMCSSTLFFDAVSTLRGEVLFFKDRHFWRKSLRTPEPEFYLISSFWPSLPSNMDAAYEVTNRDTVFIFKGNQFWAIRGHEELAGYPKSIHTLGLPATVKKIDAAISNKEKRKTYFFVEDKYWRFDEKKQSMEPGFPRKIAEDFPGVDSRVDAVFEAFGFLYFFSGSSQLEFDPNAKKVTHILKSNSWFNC
T3 sequence (O70138 101-465): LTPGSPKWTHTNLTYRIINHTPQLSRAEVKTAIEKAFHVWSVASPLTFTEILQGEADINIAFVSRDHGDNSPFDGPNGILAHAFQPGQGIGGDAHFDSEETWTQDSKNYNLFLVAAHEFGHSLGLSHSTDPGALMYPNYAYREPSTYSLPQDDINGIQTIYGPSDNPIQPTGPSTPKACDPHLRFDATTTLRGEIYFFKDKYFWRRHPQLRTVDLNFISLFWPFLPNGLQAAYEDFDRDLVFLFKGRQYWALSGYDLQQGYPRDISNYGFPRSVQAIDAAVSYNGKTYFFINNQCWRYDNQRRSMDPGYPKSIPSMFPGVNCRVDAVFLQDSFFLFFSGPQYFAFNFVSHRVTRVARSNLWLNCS

`O=C(O)[C@H]1[C@H](Cn2nnc3ccc(C(F)(F)F)cc3c2=O)CC[C@@H]1C(=O)c1ccc(OCc2ccccc2)cc1` (racemic) [Example 11, (+/−)-(1RS,2RS,5SR)-2-[4-(Benzyloxy)benzoyl]-5-{[4-oxo-6-(trifluoromethyl)-1,2,3-benzotriazin-3(4H)-yl]methyl}cyclopentanecarboxylic acid]: the IC50 stood at 590 nM against mouse MMP-3; 23 nM at mouse MMP-7; 18 nM against mouse MMP-8; 61 nM on mouse MMP-9; 1.8 nM on mouse MMP-12.
The corresponding values for `Cc1ccc2nnn(C[C@H]3CC[C@@H](C(=O)c4ccc(OCc5cccc(Cl)c5)cc4)[C@@H]3C(=O)O)c(=O)c2c1` (single isomer, unassigned) [Example 104, (+)-(1RS,2RS,5SR)-2-{4-[(3-Chlorobenzyl)oxy]benzoyl}-5-[(6-methyl-4-oxo-1,2,3-benzotriazin-3(4H)-yl)methyl]cyclopentanecarboxylic acid] are 490 nM, 20 nM, 130 nM, 330 nM and 1.1 nM.
The corresponding values for “(+)-(1RS,2RS,5SR)-2-{4-[(3,4-Dichlorobenzyl)oxy]benzoyl}-5-{[4-oxo-6-(trifluoromethyl)-1,2,3-benzotriazin-3(4H)-yl]methyl}cyclopentanecarboxylic acid [Example 28]” are 8200 nM, 140 nM, 120 nM, 2500 nM and 7.1 nM.
Consider `O=C(O)[C@H]1[C@H](Cn2nnc3ccccc3c2=O)CC[C@@H]1C(=O)c1ccc(OCc2ccc(Cl)c(Cl)c2)cc1` (racemic) [Example 3, (+/−)-(1RS,2RS,5SR)-2-{4-[(3,4-Dichlorobenzyl)oxy]benzoyl}-5-[(4-oxo-1,2,3-benzotriazin-3(4H)-yl)methyl]cyclopentanecarboxylic acid], for which the IC50 came out at 1900 nM against mouse MMP-3; 430 nM on mouse MMP-7; 810 nM at mouse MMP-8; 2600 nM at mouse MMP-9; 7 nM against mouse MMP-12.
As to `O=C(O)[C@H]1[C@H](Cn2nnc3ccc(C(F)(F)F)cc3c2=O)CC[C@@H]1C(=O)c1ccc(OCCCC2CCCCC2)cc1` (racemic) [Example 56, (+/−)-(1RS,2RS,5SR)-2-{4-(3-Cyclohexylpropoxy)benzoyl}-5-{[4-oxo-6-(trifluoromethyl)-1,2,3-benzotriazin-3(4H)-yl]methyl}cyclopentanecarboxylic acid], the IC50 was above 40000 nM on mouse MMP-3; 990 nM on mouse MMP-7; 1100 nM on mouse MMP-8; above 40000 nM against mouse MMP-9; 21 nM on mouse MMP-12.
As for `O=C(O)[C@H]1[C@H](Cn2nnc3ccccc3c2=O)CC[C@@H]1C(=O)c1ccc(OCC2CCCC2)cc1` (racemic) [Example 4, (+/−)-(1RS,2RS,5SR)-2-[4-(Cyclopentylmethoxy)benzoyl]-5-[(4-oxo-1,2,3-benzotriazin-3(4H)-yl)methyl]cyclopentanecarboxylic acid], the IC50 at mouse MMP-3 was found to be 1300 nM; against mouse MMP-7 it was 160 nM; against mouse MMP-8, 42 nM; against mouse MMP-9, 61 nM; at mouse MMP-12, 1.4 nM.
The matching figures for `O=C(O)[C@H]1[C@H](Cn2nnc3ccc(C(F)(F)F)cc3c2=O)CC[C@@H]1C(=O)c1ccc(SCc2ccc(Cl)c(Cl)c2)cc1` (racemic) [Example 79, (+/−)-(1RS,2RS,5SR)-2-{4-[(3,4-Dichlorobenzyl)sulphanyl]benzoyl}-5-{[4-oxo-6-(trifluoromethyl)-1,2,3-benzotriazin-3(4H)-yl]methyl}cyclopentanecarboxylic acid]: 9300 nM, 1100 nM, 760 nM, 2100 nM and 35 nM.
Regarding `O=C(O)[C@@H]1[C@@H](Cn2nnc3ccc(C(F)(F)F)cc3c2=O)CC[C@H]1C(=O)c1ccc(SCc2ccccc2)cc1` (single isomer, unassigned) [Example 75, (+)-(1RS,2RS,5SR)-2-[4-(Benzylsulphanyl)benzoyl]-5-{[4-oxo-6-(trifluoromethyl)-1,2,3-benzotriazin-3(4H)-yl]methyl}cyclopentanecarboxylic acid], the IC50 is 5900 nM on mouse MMP-3; 120 nM against mouse MMP-7; 410 nM against mouse MMP-8; 2700 nM at mouse MMP-9; 2.3 nM on mouse MMP-12.
The matching figures for `Cc1ccc2nnn(C[C@H]3CC[C@@H](C(=O)c4ccc(OCC5CCCCC5)cc4)[C@@H]3C(=O)O)c(=O)c2c1` (single isomer, unassigned) [Example 117, (+)-(1RS,2RS,5SR)-2-[4-(Cyclohexylmethoxy)benzoyl]-5-[(6-methyl-4-oxo-1,2,3-benzotriazin-3(4H)-yl)methyl]cyclopentanecarboxylic acid]: 470 nM, 16 nM, 13 nM, 230 nM and 0.62 nM.
The corresponding values for “(+)-(1RS,2SR,5RS)-2-{[4-Oxo-6-(trifluoromethyl)-1,2,3-benzotriazin-3(4H)-yl]methyl}-5-{4-[(2-phenylethy)sulphanyl]benzoyl}cyclopentanecarboxylic acid [Example 83]” are 5900 nM, 82 nM, 1100 nM, above 40000 nM and 5.7 nM.
